Measurements taken from patent US20250296967A1 (Ferring B.V., priority 2006, published 2025).

Assays:
[1] = Comparative release of synthetic growth factor analogues from a single scaffold (BCA, FIG. 5); format: physicochemical; settings: 100 μg peptide/cc granule, 0.9% saline
Procedure: Methods for assaying peptide release from a single scaffold are as follows: 1 cc of granules were added to 1.2 mL of 0.9% saline or of peptide solution in 0.9% saline having a concentration of 100 μg B2A2-K-NS, LA2, or F2A4/cc granule. The granule-peptide solutions were swirled vigorously for 15 seconds every 5 minutes for 20 minutes. After swirling, the supernatant was removed and assayed via BCA or micro BCA assay for peptide content. The BCA value for each peptide was corrected relative to the BSA standard curve.
Referring now to FIG. 5, the shape of the release curve is similar for all three peptides (B2A2-K-NS (diamonds), LA2 (squares), and F2A4-K-NS (triangles)). However, the magnitude of the release is markedly different.

[2] = target: T1, Type I, bovine-derived, dermal collagen sheets (Bos taurus, UniProt P02453+P02465); experiment: Release of B2A2-K-NS from collagen (BCA); format: physicochemical; settings: 0.9% saline
T1 construct: Type I, bovine-derived, dermal collagen sheets; from tissue; host or cells: bovine dermis
T1 sequence (P02453 162-1217 limits assumed): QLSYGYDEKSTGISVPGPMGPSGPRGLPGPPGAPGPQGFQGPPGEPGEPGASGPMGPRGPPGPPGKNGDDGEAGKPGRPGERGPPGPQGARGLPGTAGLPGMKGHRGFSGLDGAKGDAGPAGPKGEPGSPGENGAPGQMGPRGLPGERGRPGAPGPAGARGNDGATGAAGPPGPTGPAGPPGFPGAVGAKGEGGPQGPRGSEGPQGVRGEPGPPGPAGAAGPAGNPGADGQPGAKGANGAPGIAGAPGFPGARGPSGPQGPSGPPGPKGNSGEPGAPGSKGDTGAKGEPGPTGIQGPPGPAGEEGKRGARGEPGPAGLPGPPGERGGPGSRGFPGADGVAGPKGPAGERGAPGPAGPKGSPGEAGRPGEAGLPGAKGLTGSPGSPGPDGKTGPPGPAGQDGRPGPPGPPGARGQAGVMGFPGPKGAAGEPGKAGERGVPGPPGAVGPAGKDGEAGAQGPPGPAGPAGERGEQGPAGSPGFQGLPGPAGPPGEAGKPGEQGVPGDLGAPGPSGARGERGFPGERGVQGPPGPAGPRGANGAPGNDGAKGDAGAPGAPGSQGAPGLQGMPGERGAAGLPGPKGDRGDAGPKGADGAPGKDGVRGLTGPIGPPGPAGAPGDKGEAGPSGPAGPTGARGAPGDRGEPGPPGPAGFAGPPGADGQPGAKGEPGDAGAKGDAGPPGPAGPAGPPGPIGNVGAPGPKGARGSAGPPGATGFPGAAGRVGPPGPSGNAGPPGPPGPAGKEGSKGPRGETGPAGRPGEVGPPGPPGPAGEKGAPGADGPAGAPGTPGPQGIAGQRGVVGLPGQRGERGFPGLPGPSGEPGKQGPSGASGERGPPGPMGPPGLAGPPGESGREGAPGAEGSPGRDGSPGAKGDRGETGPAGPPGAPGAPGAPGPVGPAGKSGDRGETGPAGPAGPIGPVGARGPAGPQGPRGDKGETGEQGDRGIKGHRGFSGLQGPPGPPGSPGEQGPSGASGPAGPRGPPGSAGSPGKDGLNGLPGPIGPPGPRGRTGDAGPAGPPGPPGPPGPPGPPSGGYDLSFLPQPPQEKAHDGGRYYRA
T1 sequence (P02465 80-1117 limits assumed): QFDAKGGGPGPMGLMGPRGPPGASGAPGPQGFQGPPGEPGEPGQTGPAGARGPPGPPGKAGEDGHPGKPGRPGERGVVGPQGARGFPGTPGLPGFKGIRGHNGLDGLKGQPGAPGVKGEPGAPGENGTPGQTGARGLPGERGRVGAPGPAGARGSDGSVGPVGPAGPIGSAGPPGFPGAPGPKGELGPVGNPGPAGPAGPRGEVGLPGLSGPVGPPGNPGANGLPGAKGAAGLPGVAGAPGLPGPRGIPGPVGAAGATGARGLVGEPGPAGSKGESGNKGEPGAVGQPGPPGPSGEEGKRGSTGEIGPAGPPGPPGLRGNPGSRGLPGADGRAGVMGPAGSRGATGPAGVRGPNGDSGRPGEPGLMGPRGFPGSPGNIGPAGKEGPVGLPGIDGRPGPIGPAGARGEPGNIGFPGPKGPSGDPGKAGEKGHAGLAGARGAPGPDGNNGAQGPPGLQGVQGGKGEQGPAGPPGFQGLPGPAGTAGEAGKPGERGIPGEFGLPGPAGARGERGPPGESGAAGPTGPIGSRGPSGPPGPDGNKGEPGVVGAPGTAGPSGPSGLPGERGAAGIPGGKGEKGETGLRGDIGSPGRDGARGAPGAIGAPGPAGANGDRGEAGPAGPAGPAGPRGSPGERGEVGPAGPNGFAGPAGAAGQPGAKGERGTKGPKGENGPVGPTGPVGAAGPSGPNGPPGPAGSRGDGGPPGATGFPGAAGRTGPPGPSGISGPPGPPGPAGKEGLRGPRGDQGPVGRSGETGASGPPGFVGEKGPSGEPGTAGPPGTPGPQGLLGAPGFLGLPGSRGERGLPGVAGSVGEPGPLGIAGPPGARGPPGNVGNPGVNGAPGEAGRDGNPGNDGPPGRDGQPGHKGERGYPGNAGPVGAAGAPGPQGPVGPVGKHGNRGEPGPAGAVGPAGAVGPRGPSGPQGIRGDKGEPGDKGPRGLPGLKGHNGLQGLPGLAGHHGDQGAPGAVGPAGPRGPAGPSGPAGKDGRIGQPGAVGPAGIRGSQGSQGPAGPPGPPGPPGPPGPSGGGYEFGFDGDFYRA
Procedure: To initiate release, a vial containing collagen coated with B2A2-K-NS was replenished with 2 ml of 0.9% saline and placed on the rocking platform. After specified time interval, the supernatant was removed, filtered, and collected. A BCA assay was utilized to determine peptide concentrations. […] The BSA standard curve was generated by placing BSA in supernatant from the collagen sponge (without peptide).

B2A2-K-NS [3] = experiment: Release of B2A2-K-NS from peptide bound BRGs (ELISA); format: physicochemical; settings: 0.9% saline
Procedure: The third step was to measure the amount of peptide released using the same ELISA assay. Briefly, the peptide bound BRGs were placed in 1 ml of 0.9% saline and the amount of peptide released was measured over a 72 hours period.

B2A2-K-NS [4] = experiment: Binding of B2A2-K-NS to ceramic granules (BCA / micro BCA, subtraction method); format: physicochemical; settings: high B2A2-K-NS coating concentrations, as described in Example 2
Procedure: Methods. 1.5 cc of granules were added to 1.8 mL of 0.9% saline or of peptide solution in 0.9% saline having a concentration of 35.9, 119.8, 359.3 μg/ml. The granule-peptide solutions were swirled vigorously for 15 seconds every 5 minutes for 20 minutes. After swirling, the supernatant was removed, filtered through 0.22 μm filter (low protein binding durapore (PVDF)) and assayed via Bicinchoninic Acid (BCA) or micro BCA assay (Pierce, Rockport, IL) for peptide content. The amount of peptide bound to the particles was obtained by subtraction method (the total peptide minus peptide present in the supernatant is equal to the amount of peptide bound on particulate materials.). The study was performed on two separate days and the results averaged below: […]

[5] = Release of B2A2-K-NS from ceramic granules (BCA, cumulative release, FIG. 1); format: physicochemical; settings: first 4 hour period, 0.9% saline
Procedure: Methods: After binding the peptide to the granules as described in Example 2, each of the vials containing particulate materials was replenished with 1.8 mL of 0.9% saline and placed on the rocking platform. After specified time interval, the supernatant was removed, filtered, and collected over a period of 43 hrs. Based on the amount of the peptide present in the supernatant, the amount of peptide bound to or released from the particles as was calculated. The study was performed on two separate days with the averages plotted showing cumulative peptide released vs. time (see graph in FIG. 1) (Note: the HA plus silicon was only performed at high dose). A BCA assay was utilized to determine peptide concentrations. The 60:40 granule was pH 8.8.
Referring now to FIG. 1, the release characteristics of specified materials tested. There was a burst of peptide released over a 4 hour period (supernatant was assessed hourly for the first four hours). At high loading doses (431 μg peptide/cc granule), the burst phase accounted for 12-22% of the total amount of peptide loaded. For intermediate loading doses (144 μg peptide/cc granule), the burst phase accounted for 25-35% of the total amount loaded. For low doses (43 μg peptide/cc granule), the burst phase accounted for 48-59% of the total amount loaded. Following the burst period, there was a slower, sustained release period.
The diamond on the graph represents 60% HAP and 40% TCP (high dose). The square represents 60% HAP and 40% TCP (medium dose). The triangle represents 20% HAP and 80% TCP (high dose). The X represents 20% HAP and 80% TCP (medium dose). The star represents 100% HAP plus Si (high dose). The filled-in circle represents 60% HAP and 40% TCP (low dose), and the plus sign represents 20% HAP and 80% TCP (low dose).

B2A2-K-NS [6] = experiment: Binding of B2A2-K-NS to commercially available bone replacement grafts (ELISA, difference method); format: physicochemical; settings: BRGs in 0.9% saline
Procedure: The next step was to determine whether the peptide was able to bind these BRGs. B2A2-K-NS (approximately 20 μg/ml) was incubated in one ml of 0.9% saline solution with 0.17 gram BRGs for 15 minutes. An ELISA assay was performed both on peptide solution without BRGs and the supernatant from the peptide+BRG. The difference between the peptide only reading and the supernatant from the peptide+BRG provided the amount of peptide bound.
The binding definitions are defined as follows: None is no detectable binding. High is binding>20 μg peptide/cc graft material. Intermediate is less than 20 μg peptide/cc graft material, but above non-detectable binding.

ectopic bone = experiment: Ectopic bone induction by B2A2-K-NS coated granules with exogenous recombinant BMP-2, subcutaneous implant in rats; format: in vivo
Procedure: Sterile ceramic granules (Berkeley Advanced Biomaterials, Inc.; 60:40 (HA:TCP)) where coated by immersing them for 30 minutes in a solution containing B2A2-K-NS (0-, 2.5-, 10-, 25 μg/ml). Thereafter, the solution was removed by aspiration and the granules allowed to air dry. The coated granules were then placed in sterile gelatin capsules. […] The capsules were placed subcutaneously in young adult rats on the flanks in pre-prepared pouches and the surgical site closed with surgical clips. After 30 days, the implants were surgically removed, weighed, and palpated to assess hardness. The explants were then fixed with multiple changes into 70% ethanol.

[7] = target: T1, Type I, bovine-derived, dermal collagen sheets; experiment: Binding of B2A2-K-NS to collagen sheets; format: physicochemical; settings: 1,072 μg B2A2-K-NS/ml collagen sheet in 0.9% saline
Procedure: Type I, bovine-derived, dermal collagen sheets that were crosslinked with DHT and lyophilized were incubated with 1,072 μg B2A2-K-NS/ml collagen sheet in 0.9% saline solution. The binding efficiency was 61%, which was far lower than the binding efficiency on the Ca^2+ containing granules at high B2A2-K-NS coating concentrations (87-95% as described in Example 2). Lower binding efficiencies may be attributed to lower surface area as compared to that of the granules.

[8] = system: mouse pluripotent cell lines C2C12; experiment: Alkaline phosphatase assay of B2A2-K-NS released from 20:80 granules, with or without BMP-2; format: cell-based; settings: peptide released from 20:80 granules, 1.25- to 10 μg/ml, BMP-2 100 ng/ml, C2C12 cells, 1 day
Procedure: Methods: (A) Peptide was collected over a six hour period after release from 20:80 (as described in Example 3). The supernatants from all time points were mixed, frozen, and lyophilized for 48 hours. The peptide pellet was reconstituted in 1.5 ml saline and a BCA assay performed to determine peptide concentration.
(B) Alkaline phosphatase assays were performed using mouse pluripotent cell lines C2C12. Cells were plated in 96-well (1×10^4/well) plates in DMEM/F-12 Ham's containing 15% FBS, 1% L-gln, 1% NaPyr, and 1% gentamycin and allowed 24 hours to attach at 37 C, 5% CO2, 90% humidity. […] After 1 day, ALP activity was determined.

## SIKVAVAAK(H-SIKVAVAA)xHxHxRKRKLERIAR-amide [LA2]
[1]
  release of peptide from the scaffold (relative magnitude): most rapidly released

## YRSRKYSSWYVALKRK(H-YRSRKYSSWYVALKR)HxHxHxRKRLDRIAR-amide [F2A4]
[1]
  release of peptide from the scaffold (relative magnitude): does not release readily

## AISMLYLDENEKVVLKK(AISMLYLDENEKVVLK)HxHxHxRKRLDRIARNH2 [B2A2-K-NS]
[2]; after 1 hour
  cumulative amount of peptide released: 11%
[2]; after 2 hours
  cumulative amount of peptide released: 19%
[2]; after 3 hours
  cumulative amount of peptide released: 23%
[2]; after 4 hours
  cumulative amount of peptide released: 28%
B2A2-K-NS [3]
  pH range of materials from which the peptide could release: 6.3-10
B2A2-K-NS [4]
  binding efficiency on the Ca2+ containing granules: 87-95%
[5]; high loading doses (431 μg peptide/cc granule)
  burst phase release, share of the total amount of peptide loaded: 12-22%
[5]; intermediate loading doses (144 μg peptide/cc granule)
  burst phase release, share of the total amount loaded: 25-35%
[5]; low doses (43 μg peptide/cc granule)
  burst phase release, share of the total amount loaded: 48-59%
B2A2-K-NS [6]
  pH range of BRGs to which the peptide was found to bind: 3.7-10.5
Ectopic bone; coated with 2.5 μg B2A2-K-NS, 1 μg recombinant BMP-2, rats, 30 days
  implants judged palpably hardened: 3/4
Ectopic bone; coated with 10 μg B2A2-K-NS, 1 μg recombinant BMP-2, rats, 30 days
  implants judged palpably hardened: 3/4
Ectopic bone; coated with 25 ug B2A2-K-NS, 1 μg recombinant BMP-2, rats, 30 days
  implants judged palpably hardened: 4/4
Ectopic bone; coated with 25 ug B2A2-K-NS, 1 μg recombinant BMP-2, rats, 30 days, hematoxylin and eosin
  implants with histologically identifiable new bone: 4/4
Ectopic bone; rats, subcutaneous, 60:40 (HA:TCP) granules coated with 25 μg B2A2-K-NS, 1 μg recombinant BMP-2, 30 days
  explant weight versus controls (no BMP-2, no B2A2-K-NS): significantly higher weight
Ectopic bone; rats, subcutaneous, granules coated with 25 μg B2A2-K-NS, 1 μg recombinant BMP-2, 30 days
  explant weight versus those containing BMP-2 but no B2A2-K-NS: tended (p=0.11) to have a higher weight
[7]
  binding efficiency: 61%
[8]
  effect on BMP-2 activity (ALP activity): increased BMP-2 activity
